Patent US6784184B2, “5-(arylsulfonyl)-,5-(arylsulfinyl), and 5-(arylsulfanyl)-thiazolidine-2,4-diones useful for inhibition of farnesyl-protein transferase” (Wyeth Holdings Corporation, priority 2001, dated 2004)
Values belong to the compound of their own block, whether it stands above or below them.

Key:
FPTase (H-Ras substrate) = FPTase (H-Ras substrate) (UniProt P29702+P49355); test: in vitro FTase Inhibition Assay, H-Ras as substrate for farnesylation; type: biochemical; conditions: H-Ras used as substrate for farnesylation
Method: (§1) The ability of the compounds of this invention to inhibit FPTase was evaluated in the standard pharmacological in vitro test procedures described below.
(§2) Methods—1. […] 2. Solution #1 is added to FPTase reaction in a volume of […]. 3. Standard reaction mix, […], contains 50 mM Tris (7.5), […], 3 mM MgCl2, 20 mM KCl, 5 mM DTT, 0.2% octyl-B-glucoside, 1% DMSO, […], 10 ng FPTase, and various concentrations of FPTase inhibitors. 4. Incubate for 30-90 min at […] 5. Stop reactions with TCA/SDS (6%/2%), hold at 4° C. for 45-60 min. 6. Filter by manifold or 96 well plate, wash filter 3-5× with TCA (6%). 7. Add scintillant to filters, measure ^3H-FPP incorporation into Ras protein.
(§3) (cpm from precipitated Ras with test compounds)−(background cpm)×100=% inhibition.
(§4) (cpm from precipitated Ras without test compounds)−(background cpm)

FPTase (K-Ras substrate) = FPTase (K-Ras substrate) (UniProt P29702+P49355); test: in vitro FTase Inhibition Assay, K-Ras as substrate for farnesylation; type: biochemical; conditions: K-Ras used as substrate for farnesylation
Method: as §1, §2, §3, §4

Compound: O=C1NC(=O)C(CCCC#Cc2ccc(Cl)cc2)(S(=O)(=O)c2ccc(I)cc2)S1 (stereo not drawn) [Example 104, 5-[5-(4-Chlorophenyl)pent-4-ynyl]-5-(4-iodobenzenesulfonyl)-thiazolidine-2,4-dione]
IC50 (FPTase (K-Ras substrate)): 230 to 900 nM
IC50 (FPTase (H-Ras substrate)): 30 to 54 nM

Compound: Cc1ccc([N+](=O)[O-])cc1C#CCCCC1(S(=O)(=O)c2cccc3ccccc23)SC(=O)NC1=O (stereo not drawn) [Example 126, 5-[5-(2-Methyl-5-nitrophenyl)-pent-4-ynyl]-5-(naphthalene-1-sulfonyl)-thiazolidine-2,4-dione]
IC50 (FPTase (K-Ras substrate)): 1700 nM
IC50 (FPTase (H-Ras substrate)): 90 nM

Compound: COc1ccc(S(=O)(=O)C2(CCCC#Cc3ccc(Cl)cc3Cl)SC(=O)NC2=O)cc1 (stereo not drawn) [Example 117, 5-[5-(2,4-Dichlorophenyl)pent-4-ynyl]-5-(4-methoxybenzenesulfonyl)-thiazolidine-2,4-dione]
IC50 (FPTase (K-Ras substrate)): 510 to 1000 nM
IC50 (FPTase (H-Ras substrate)): 20 to 30 nM

Compound: COc1ccc(S(=O)(=O)C2(CCCC#Cc3cc(NC(=O)OC(C)(C)C)ccc3C)SC(=O)NC2=O)cc1 (single isomer, unassigned; more polar) [Example 223, Enantiomer of(3-{5-[5-(4-Methoxybenzenesulfonyl)-2,4-dioxothiazolidin-5-yl]pent-1-ynyl}-4-methylphenyl)carbamic Acid tert-Butyl Ester (more polar)]
IC50 (FPTase (K-Ras substrate)): > 1000 nM
IC50 (FPTase (H-Ras substrate)): 63 nM

Compound: O=C1NC(=O)C(CCCC#Cc2ccc(Cl)cc2)(S(=O)(=O)c2ccc([N+](=O)[O-])cc2)S1 (stereo not drawn) [Example 110, 5-[5-(4-Chlorophenyl)pent-4-ynyl]-5-(4-nitrobenzenesulfonyl)-thiazolidine-2,4-dione]
IC50 (FPTase (K-Ras substrate)): 7000 nM
IC50 (FPTase (H-Ras substrate)): 400 nM

Compound: Cc1ccc([N+](=O)[O-])cc1C#CCCCC1(S(=O)(=O)c2ccc3ccccc3c2)SC(=O)NC1=O (stereo not drawn) [Example 127, 5-[5-(2-Methyl-5-nitrophenyl)pent-4-ynyl]-5-(naphthalene-2-sulfonyl)-thiazolidine-2,4-dione]
IC50 (FPTase (K-Ras substrate)): 1300 to 1500 nM
IC50 (FPTase (H-Ras substrate)): 120 to 140 nM

Compound: COc1ccc(S(=O)(=O)C2(CCCC#Cc3ccc(OC(F)(F)F)cc3)SC(=O)NC2=O)cc1 (stereo not drawn) [Example 154, 5-(4-Methoxybenzenesulfonyl)-5-[5-(4-trifluoromethoxyphenyl)pent-4-ynyl]-thiazolidine-2,4-dione]
IC50 (FPTase (K-Ras substrate)): 1000 to 2500 nM
IC50 (FPTase (H-Ras substrate)): 70 to 150 nM

Compound: O=C1NC(=O)C(CCCC#Cc2ccc(Cl)cc2)(S(=O)(=O)c2ccc(OCc3ccccc3)cc2)S1 (stereo not drawn) [Example 111, 5-(4-Benzyloxybenzenesulfonyl)-5-[5-(4-chlorophenyl)pent-4-ynyl]-thiazolidine-2,4-dione]
IC50 (FPTase (K-Ras substrate)): 300 to 550 nM
IC50 (FPTase (H-Ras substrate)): 110 to 150 nM

Compound: COc1ccc(S(=O)(=O)C2(CCCC#Cc3cc([N+](=O)[O-])ccc3C)SC(=O)NC2=O)cc1 (stereo not drawn) [Example 122, 5-(4-Methoxybenzenesulfonyl)-5-[5-(2-methyl-5-nitrophenyl)pent-4-ynyl]-thiazolidine-2,4-dione]
IC50 (FPTase (K-Ras substrate)): 230 to 1000 nM
IC50 (FPTase (H-Ras substrate)): 30 to 50 nM

Compound: Cc1ccc(S(=O)(=O)C2(CC#Cc3ccc(-c4ccccc4)cc3)SC(=O)NC2=O)cc1 (stereo not drawn) [Example 169, 5-(3-Biphenyl-4-yl-prop-2-ynyl)-5-(toluene-4-sulfonyl)-thiazolidine-2,4-dione]
IC50 (FPTase (K-Ras substrate)): 1800 nM
IC50 (FPTase (H-Ras substrate)): 100 nM

Compound: COc1ccc(S(=O)(=O)C2(CCCC#Cc3cc(Cl)ccc3C)SC(=O)NC2=O)cc1 (stereo not drawn) [Example 138, 5-[5-(5-Chloro-2-methylphenyl)pent-4-ynyl]-5-(4-methoxybenzene-sulfonyl)thiazolidine-2,4-dione]
IC50 (FPTase (K-Ras substrate)): 300 to 420 nM
IC50 (FPTase (H-Ras substrate)): 23 to 32 nM

Compound: Cc1cc(Br)ccc1C#CCCCC1(S(=O)(=O)c2ccc(I)cc2)SC(=O)NC1=O (stereo not drawn) [Example 144, 5-[5-(4-Bromo-2-methylphenyl)pent-4-ynyl]-5-(4-iodobenzenesulfonyl)-thiazolidine-2,4-dione]
IC50 (FPTase (K-Ras substrate)): 320 to 550 nM
IC50 (FPTase (H-Ras substrate)): 40 to 41 nM

Compound: COc1ccc(S(=O)(=O)C2(CCCC#Cc3cc(NC(=O)OC(C)C)ccc3C)SC(=O)N(C(=O)OC(C)C)C2=O)cc1 (stereo not drawn) [Example 229, Isopropyl 5-(5-{5-[(isopropoxycarbonyl)-amino]-2-methylphenyl}pent-4-ynyl)-5-[(4-methoxyphenyl)sulfonyl]-2,4-dioxo-1,3-thiazolidine-3-carboxylate]
IC50 (FPTase (K-Ras substrate)): 100 to 700 nM
IC50 (FPTase (H-Ras substrate)): 6 to 20 nM

Compound: COc1ccc(S(=O)(=O)C2(CCCC#Cc3cc(NC(=O)OC(C)C)ccc3C)SC(=O)NC2=O)cc1 (stereo not drawn) [Example 179, (3-{5-[5-(4-Methoxybenzenesulfonyl)-2,4-dioxothiazolidin-5-yl]pent-1-ynyl}-4-methylphenyl)carbamic Acid Isopropyl Ester]
IC50 (FPTase (K-Ras substrate)): 5 to 70 nM
IC50 (FPTase (H-Ras substrate)): 2 to 32 nM

Compound: COc1ccc(S(=O)(=O)C2(CCCC#Cc3ccc(-n4cccc4)cc3)SC(=O)NC2=O)cc1 (stereo not drawn) [Example 161, 5-(4-Methoxybenzenesulfonyl)-5-[5-(4-pyrrol-1-yl-phenyl)pent-4-ynyl]-thiazolidine-2,4-dione]
IC50 (FPTase (H-Ras substrate)): 900 nM

Compound: O=C1NC(=O)C(CCCC#Cc2ccc(-n3cccc3)cc2)(S(=O)(=O)c2ccc(OC(F)(F)F)cc2)S1 (stereo not drawn) [Example 163, 5-[5-(4-Pyrrol-1-ylphenyl)pent-4-ynyl]-5-(4-trifluoromethoxybenzenesulfonyl)-thiazolidine-2,4-dione]
IC50 (FPTase (H-Ras substrate)): 1300 nM

The remaining lines, values ahead:

IC50 (FPTase (H-Ras substrate)): 1500 nM
Compound: COc1ccc(S(=O)(=O)C2(CC#Cc3cccnc3)SC(=O)NC2=O)cc1 (stereo not drawn) [Example 167, 5-(4-Methoxybenzenesulfonyl)-5-(3-pyridin-3-ylprop-2-ynyl)-thiazolidine-2,4-dione]

IC50 (FPTase (K-Ras substrate)): 3300 nM
IC50 (FPTase (H-Ras substrate)): 200 nM
Compound: COc1ccc(S(=O)(=O)C2(CC#Cc3ccc(-c4ccccc4)cc3)SC(=O)NC2=O)cc1 (stereo not drawn) [Example 171, 5-(3-Biphenyl-4-yl-prop-2-ynyl)-5-(4-methoxybenzenesulfonyl)-thiazolidine-2,4-dione]

IC50 (FPTase (K-Ras substrate)): 100 to 230 nM
IC50 (FPTase (H-Ras substrate)): 11 to 16 nM
Compound: COc1ccc(S(=O)(=O)C2(CCCC#Cc3cc(C(=O)NC(C)(C)C)ccc3C)SC(=O)NC2=O)cc1 (stereo not drawn) [Example 152, N-tert-Butyl-3-{5-[5-(4-methoxy-benzenesulfonyl)-2,4-dioxothiazol-idin-5-yl]pent-1-ynyl}-4-methyl-benzamide]

IC50 (FPTase (K-Ras substrate)): 32 to 56 nM
IC50 (FPTase (H-Ras substrate)): 5 to 10 nM
Compound: COc1ccc(S(=O)(=O)C2(CCCC#Cc3cc(NC(=O)OCC(C)C)ccc3C)SC(=O)NC2=O)cc1 (stereo not drawn) [Example 182, (3-{5-[5-(4-Methoxybenzenesulfonyl)-2,4-dioxothiazolidin-5-yl]pent-1-ynyl}-4-methylphenyl)carbamic Acid Isobutyl]

IC50 (FPTase (K-Ras substrate)): 230 to 1000 nM
IC50 (FPTase (H-Ras substrate)): 4 to 70 nM
Compound: COC(=O)Nc1ccc(C)c(C#CCCCC2(S(=O)(=O)c3ccc(OC)cc3)SC(=O)N(C(=O)OC)C2=O)c1 (stereo not drawn) [Example 228, Methyl 5-(5-{5-[(methoxycarbonyl)amino]-2-methylphenyl}pent-4-ynyl)-5-[(4-methoxyphenyl)sulfonyl]-2,4-dioxo-1,3-thiazolidine-3-carboxylate]

IC50 (FPTase (K-Ras substrate)): 17 to 40 nM
IC50 (FPTase (H-Ras substrate)): 5 to 10 nM
Compound: O=C1NC(=O)C(CCCC#Cc2cc(Cl)ccc2Cl)(S(=O)(=O)c2ccc(Oc3ccncc3)cc2)S1 (stereo not drawn) [Example 116, 5-[5-(2,5-Dichlorophenyl)pent-4-ynyl]-5-[4-(pyridin-4-yloxy)benz-enesulfonyl]-thiazolidine-2,4-dione]

IC50 (FPTase (K-Ras substrate)): 20 to 500 nM
IC50 (FPTase (H-Ras substrate)): 3 to 3.5 nM
Compound: COc1ccc(S(=O)(=O)C2(CCCC#Cc3cc(NC(=O)OCC(C)(C)C)ccc3C)SC(=O)N(C(=O)OCC(C)(C)C)C2=O)cc1 (stereo not drawn) [Example 230, Neopentyl 5-[(4-methoxyphenyl)sulfonyl]-5-[5-(2-methyl-5-{[(neopentyloxy)carbonyl]-amino}phenyl)pent-4-ynyl]-2,4-dioxo-1,3-thiazolidine-3-carboxylate]

IC50 (FPTase (K-Ras substrate)): 20 to 220 nM
IC50 (FPTase (H-Ras substrate)): 1 to 32 nM
Compound: 5-[5-(2-Methyl-4-nitrophenyl)pent-4-ynyl]-5-[4-(pyridin-4-yloxy)-benzenesulfonyl]-thiazolidine-2,4-dione [Example 128]

IC50 (FPTase (K-Ras substrate)): 110 to 1000 nM
IC50 (FPTase (H-Ras substrate)): 10 to 30 nM
Compound: COc1ccc(S(=O)(=O)C2(CCCC#Cc3ccccc3Cl)SC(=O)NC2=O)cc1 (stereo not drawn) [Example 101, 5-[5-(2-Chlorophenyl)pent-4-ynyl]-5-(4-methoxybenzenesulfonyl)-thiazolidine-2,4-dione]

IC50 (FPTase (K-Ras substrate)): > 10000 nM
IC50 (FPTase (H-Ras substrate)): 650 nM
Compound: Cc1ccc(S(=O)(=O)C2(CCCC#Cc3ccc(S(C)(=O)=O)cc3)SC(=O)NC2=O)cc1 (stereo not drawn) [Example 159, 5-[5-(4-Methanesulfonylphenyl)-pent-4-ynyl]-5-(toluene-4-sulfonyl)-thiazolidine-2,4-dione]

IC50 (FPTase (K-Ras substrate)): ≥ 9000 nM
IC50 (FPTase (H-Ras substrate)): 130 to 180 nM
Compound: CC(=O)Nc1ccc(S(=O)(=O)C2(CCCC#Cc3ccc(Cl)cc3)SC(=O)NC2=O)cc1 (stereo not drawn) [Example 108, N-(4-{5-[5-(4-Chlorophenyl)pent-4-ynyl]-2,4-dioxothiazolidine-5-sulfonyl}phenyl)acetamide]

IC50 (FPTase (H-Ras substrate)): 280 nM
Compound: Cc1ccc(S(=O)(=O)C2(CC#Cc3cccs3)SC(=O)NC2=O)cc1 (stereo not drawn) [Example 168, 5-(3-Thiophen-2-yl-prop-2-ynyl)-5-(toluene-4-sulfonyl)-thiazolidine-2,4-dione]

IC50 (FPTase (H-Ras substrate)): 2900 nM
Compound: COc1ccc(S(=O)(=O)C2(CCCC#Cc3ccc(Cl)cc3)SC(=O)N(CCCn3ccnc3)C2=O)cc1 (stereo not drawn) [Example 233, 5-[5-(4-Chlorophenyl)pent-4-ynyl]-3-(3-imidazol-1-yl-propyl)-5-(4-methoxybenzenesulfonyl)-thiazolidine-2,4-dione]

IC50 (FPTase (H-Ras substrate)): 700 nM
Compound: O=C1NC(=O)C(CCCC#Cc2ccc(Cl)cc2)(Sc2ccc(F)cc2)S1 (stereo not drawn) [Example 96, 5-[5-(4-Chlorophenyl)pent-4-ynyl]-5-(4-fluorophenylsulfanyl)-thiazolidine-2,4-dione]
